# In patent publication US8546376B2, “Pharmaceutical compounds” (Almac Discovery Limited, priority 2009, dated 2013):
# Where a name gives a salt, the structure may show the parent alone.
# Key:
# Assay type in all cases: biochemical
# [1] = target: T1, AKT3 (Homo sapiens, UniProt Q9Y243); test: AKT Kinase Assay (IMAP fluorescent polarisation) vs AKT3; conditions: activated AKT3, FAM Crosstide substrate
# T1 construct: purchased SignalChem
# Method: (§1) Testing of the compounds was performed using an AKT Kinase Assay:
# (§2) Activated AKT isoforms 1, 2 and 3 were assayed utilising a 5′ FAM Crosstide (Seq. GRPRTSSFAEG-OH). The extent of kinase phosphorylation was determined by fluorescent polarisation using IMAP progressive binding reagent, which introduces binding beads which allow the reagent to specifically bind to phosphate residues via covalent co-ordination complex bonds.
# (§3) iMAP binding solution stops Crosstide/kinase interaction and specifically binds phosphorylated substrates. The degree of phosphorylation is determined by fluorescent polarisation (excitation 485 nm; emission 528 nm) or the reduction in speed of rotation of the excited substrate.
# (§4) The following materials were used in the assay: • a) Activated AKT isoforms (SignalChem.) dissolved in Complete Reaction buffer at a pre-determined concentration selected so that the assay was carried out in the linear range. • b) AKT substrate peptide: FAM Crosstide (R7110) Molecular Devices, diluted in complete reaction buffer. • c) iMAP Progressive Screening Express Kit (R8127) Molecular Devices • d) Complete Reaction Buffer containing 0.1% BSA, 10 mM Tris-HCl, 10 mM MgCl2, 0.05% NaN3 and 0.01% phosphate free BSA, 1 mM DTT • e) Progressive Binding Solution containing 75% Buffer A, 25% Buffer B and low volume Binding Reagent which contains the binding entity for the assay • f) ATP diluted in complete reaction buffer • g) Black polystyrene 384 well assay plates (Nunc). • h) Biotek Synergy 4 Hybrid Plate reader.
# (§5) 5 μl of test compound was dissolved in DMSO (Sigma Aldrich) and serially diluted in complete reaction buffer to give a fourteen point half log dose response and plated into 384 well black plates. The compound was incubated at room temperature with activated AKT isoform (5 μl) at the pre-determined concentration, for 45 minutes.
# (§6) 2.5 μl of ATP solution mixed with 2.5 μl of AKT substrate peptide (FAM Crosstide (R7110) Molecular Devices) were dispensed into each well and the plate centrifuged at 1000 rpm for 20 seconds to ensure homogenous mixing of reagents. The reaction mix was incubated in the dark for one hour at room temperature.
# (§7) The kinase reaction was stopped by the addition of Progressive Binding Solution and the mixture allowed to equilibrate for one hour in the dark, at room temperature.
# (§8) The fluorescent polarisation generated in each well was determined using a […] Synergy 4 Hybrid plate reader. In brief, each reaction solution was excited at 485 nm with the emission measured at 528 nm in both the parallel and perpendicular pathway.
# (§9) The polarisation value generated in each well was calculated by Gen5 software (Biotek) and the % inhibition of kinase activity compared to vehicle control was calculated via GraphPad Prism. IC50 values for each compound were calculated by non-linear regression analysis using Prism software.
# (§10) All plates were internally controlled by two methods. Firstly, by calculating the signal:noise ratio; based on kinase polarisation without inhibitor and polarisation generated by complete reaction buffer in the absence of activated kinase. Secondly by determining IC50 values generated by known inhibitors of the AKT isoforms.
# [2] = target: T2, AKT2 (Homo sapiens, UniProt P31751); test: AKT Kinase Assay (IMAP fluorescent polarisation) vs AKT2; conditions: activated AKT2, FAM Crosstide substrate
# T2 construct: purchased SignalChem
# T2 sequence (P31751 whole entry): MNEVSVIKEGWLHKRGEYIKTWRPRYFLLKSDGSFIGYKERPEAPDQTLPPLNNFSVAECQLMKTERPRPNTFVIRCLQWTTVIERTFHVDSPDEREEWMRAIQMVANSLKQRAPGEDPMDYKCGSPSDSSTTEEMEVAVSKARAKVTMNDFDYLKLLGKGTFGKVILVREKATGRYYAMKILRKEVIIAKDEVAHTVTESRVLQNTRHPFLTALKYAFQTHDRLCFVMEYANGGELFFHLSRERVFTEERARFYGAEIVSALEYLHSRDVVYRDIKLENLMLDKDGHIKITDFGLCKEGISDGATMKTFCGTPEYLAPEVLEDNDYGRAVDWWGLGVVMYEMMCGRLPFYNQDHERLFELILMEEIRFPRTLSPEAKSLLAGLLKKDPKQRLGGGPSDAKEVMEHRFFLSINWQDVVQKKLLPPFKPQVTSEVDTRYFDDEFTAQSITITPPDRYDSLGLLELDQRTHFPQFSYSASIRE
# Method: as §1, §2, §3, §4, §5, §6, §7, §8, §9, §10
# [3] = target: T3, AKT1 (Homo sapiens, UniProt P31749); test: AKT Kinase Assay (IMAP fluorescent polarisation) vs AKT1; conditions: activated AKT1, FAM Crosstide substrate
# T3 construct: purchased SignalChem
# T3 sequence (P31749 whole entry): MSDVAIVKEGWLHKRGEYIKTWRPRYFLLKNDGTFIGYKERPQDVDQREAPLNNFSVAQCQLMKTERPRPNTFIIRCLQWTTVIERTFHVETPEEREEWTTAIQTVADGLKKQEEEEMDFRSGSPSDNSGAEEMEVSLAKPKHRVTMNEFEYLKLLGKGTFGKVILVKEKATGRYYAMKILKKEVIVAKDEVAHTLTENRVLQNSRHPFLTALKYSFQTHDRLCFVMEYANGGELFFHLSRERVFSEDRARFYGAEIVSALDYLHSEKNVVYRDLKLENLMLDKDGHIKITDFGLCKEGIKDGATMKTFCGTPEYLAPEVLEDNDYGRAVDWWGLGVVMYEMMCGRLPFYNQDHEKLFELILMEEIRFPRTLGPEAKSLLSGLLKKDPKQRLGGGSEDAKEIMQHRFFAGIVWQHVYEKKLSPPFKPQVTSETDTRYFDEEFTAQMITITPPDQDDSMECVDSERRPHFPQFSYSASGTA
# Method: as §1, §2, §3, §4, §5, §6, §7, §8, §9, §10
# T1 sequence (Q9Y243 whole entry): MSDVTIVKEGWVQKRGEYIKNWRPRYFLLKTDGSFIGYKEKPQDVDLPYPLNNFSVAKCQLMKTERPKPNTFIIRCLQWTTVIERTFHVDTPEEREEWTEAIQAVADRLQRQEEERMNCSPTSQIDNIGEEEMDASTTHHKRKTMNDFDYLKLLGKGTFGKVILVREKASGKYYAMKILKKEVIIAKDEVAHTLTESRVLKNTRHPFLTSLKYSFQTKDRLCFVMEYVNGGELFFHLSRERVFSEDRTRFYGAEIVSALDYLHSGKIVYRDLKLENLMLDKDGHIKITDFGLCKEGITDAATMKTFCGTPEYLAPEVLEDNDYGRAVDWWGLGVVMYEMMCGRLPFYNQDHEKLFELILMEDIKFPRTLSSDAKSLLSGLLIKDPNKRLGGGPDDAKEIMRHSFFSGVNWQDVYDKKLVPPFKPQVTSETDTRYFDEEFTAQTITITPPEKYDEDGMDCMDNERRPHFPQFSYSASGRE
IC50 [1] [nM],IC50 [2] [nM],IC50 [3] [nM],SMILES
1000 to 10000,1000 to 10000,> 10000,"COCCn1ccc2c(=O)c(-c3ccc(C4(N)CCC4)cc3)c(-c3ccccc3)oc2c1=O [Example 31, 3-[4-(1-Amino-cyclobutyl)-phenyl]-7-(2-methoxy-ethyl)-2-phenyl-7H-pyrano[2,3-c]pyridine-4,8-dione]"
1000 to 10000,≤ 1000,1000 to 10000,"NC1(c2ccc(-c3c(-c4ccccc4)oc4c(OC(F)F)nccc4c3=O)cc2)CCC1 [Example 32, 3-[4-(1-Amino-cyclobutyl)-phenyl]-8-difluoromethoxy-2-phenyl-pyrano[2,3-c]pyridin-4-one]"
≤ 1000,≤ 1000,≤ 1000,"NC1(c2ccc(-c3c(-c4ccccc4)oc4c(ccc5[nH]ncc54)c3=O)cc2)CCC1 [Example 33, 3-[4-(1-Amino-cyclobutyl)-phenyl]-2-phenyl-7H-pyrano[2,3-c]indazol-4-one]"
> 10000,1000 to 10000,1000 to 10000,"NC1(c2ccc(-c3c(-c4ccccc4)oc4ncccc4c3=O)cc2)CCC1 [Example 34, 3-[4-(1-Amino-cyclobutyl)-phenyl]-2-phenyl-pyrano[2,3-b]pyridin-4-one]"
1000 to 10000,1000 to 10000,1000 to 10000,"COc1ccc2c(=O)c(-c3ccc(C4(N)CCC4)cc3)c(-c3ccccc3)oc2n1 [Example 35, 3-[4-(1-Amino-cyclobutyl)-phenyl]-7-methoxy-2-phenyl-pyrano[2,3-b]pyridin-4-one hydrochloride]"
> 10000,1000 to 10000,1000 to 10000,"NC1(c2ccc(-c3c(-c4ccccc4)oc4[nH]c(=O)ccc4c3=O)cc2)CCC1 [Example 36, 3-[4-(1-Amino-cyclobutyl)-phenyl]-2-phenyl-8H-pyrano[2,3-b]pyridine-4,7-dione hydrochloride]"
1000 to 10000,1000 to 10000,≤ 1000,"NC1(c2ccc(-c3c(-c4ccccc4)oc4cc(F)ccc4c3=O)cc2)CCC1 [Example 37, 3-[4-(1-Amino-cyclobutyl)-phenyl]-7-fluoro-2-phenyl-chromen-4-one hydrochloride]"
> 10000,1000 to 10000,1000 to 10000,"NC1(c2ccc(-c3c(-c4ccccc4)oc4nc(Cl)ccc4c3=O)cc2)CCC1 [Example 38, 3-[4-(1-Amino-cyclobutyl)-phenyl]-7-chloro-2-phenyl-pyrano[2,3-b]pyridin-4]"
1000 to 10000,≤ 1000,≤ 1000,"COc1nccc2c(=O)c(-c3ccc(C4(N)CCC4)cc3)c(-c3ccccc3)oc12 [Example 39, 3-[4-(1-Amino-cyclobutyl)-phenyl]-8-methoxy-2-phenyl-pyrano[2,3-c]pyridin-4-one hydrochloride]"
> 10000,1000 to 10000,> 10000,"Cn1ccc2c(=O)c(-c3ccc(C4(N)CCC4)cc3)c(-c3ccccc3)oc2c1=O [Example 41, 3-[4-(1-Amino-cyclobutyl)-phenyl]-7-methyl-2-phenyl-7H-pyrano[2,3-c]pyridine-4,8-dione hydrochloride]"
1000 to 10000,≤ 1000,≤ 1000,"NC1(c2ccc(-c3c(-c4ccccc4)oc4c(Cl)nccc4c3=O)cc2)CCC1 [Example 42, 3-[4-(1-Amino-cyclobutyl)-phenyl]-8-chloro-2-phenyl-pyrano[2,3-c]pyridin-4-one hydrochloride]"
> 10000,> 10000,> 10000,"NC1(c2ccc(-c3c(-c4ccccc4)oc4c(=O)n(CCO)ccc4c3=O)cc2)CCC1 [Example 43, 3-[4-(1-Amino-cyclobutyl)-phenyl]-7-(2-hydroxy-ethyl)-2-phenyl-7H-pyrano[2,3-c]pyridine-4,8-dione hydrochloride]"
1000 to 10000,≤ 1000,1000 to 10000,"NC1(c2ccc(-c3c(-c4ccccc4)oc4c(ccc5nc[nH]c54)c3=O)cc2)CCC1 [Example 45, 7-[4-(1-Amino-cyclobutyl)-phenyl]-8-phenyl-1H-chromeno[7,8-d]imidazol-6-one.TFA]"
> 10000,1000 to 10000,1000 to 10000,"Nc1ccc2c(=O)c(-c3ccc(C4(N)CCC4)cc3)c(-c3ccccc3)oc2c1 [Example 47, 7-Amino-3-[4-(1-amino-cyclobutyl)-phenyl]-2-phenyl-1-benzopyran-4-one.TFA]"
1000 to 10000,1000 to 10000,1000 to 10000,"NC1(c2ccc(C3=C(c4ccccc4)c4ccccc4C3=O)cc2)CCC1 [Example 48, 2-(4-(1-aminocyclobutyl)phenyl)-3-phenyl-1H-inden-1-one hydrochloride]"
> 10000,> 10000,≤ 1000,"Nc1cc2oc(-c3ccccc3)c(-c3ccc(C4(N)CCC4)cc3)c(=O)c2cc1Br [Example 49, 7-Amino-3-[4-(1-amino-cyclobutyl)-phenyl]-6-bromo-2-phenyl-chromen-4-one. TFA]"
1000 to 10000,1000 to 10000,≤ 1000,"COc1ccc2c(=O)c(-c3ccc(C4(N)CCC4)cc3)c(-c3ccccc3)oc2c1C(N)=O [Example 50, 3-[4-(1-Amino-cyclobutyl)-phenyl]-7-methoxy-4-oxo-2-phenyl-4H-chromene-8-carboxylic acid amide hydrochloride]"
≤ 1000,≤ 1000,≤ 1000,"NC1(c2ccc(-c3c(-c4ccccc4)oc4c(Br)cccc4c3=O)cc2)CCC1 [Example 51, 3-[4-(1-Amino-cyclobutyl)-phenyl]-8-bromo-2-phenyl-chromen-4-one]"
≤ 1000,≤ 1000,≤ 1000,"NC1(c2ccc(-c3c(-c4ccccc4)oc4c(-c5cn[nH]c5)cccc4c3=O)cc2)CCC1 [Example 52, 3-[4-(1-Amino-cyclobutyl)-phenyl]-2-phenyl-8-(1H-pyrazol-4-yl)-chromen-4-one hydrochloride]"
1000 to 10000,≤ 1000,≤ 1000,"NC1(c2ccc(-c3c(-c4ccccc4)oc4c(-c5cc[nH]n5)cccc4c3=O)cc2)CCC1 [Example 53, 3-[4-(1-Amino-cyclobutyl)-phenyl]-2-phenyl-8-(1H-pyrazol-3-14)-chromen-4-one hydrochloride]"
1000 to 10000,≤ 1000,≤ 1000,"NC1(c2ccc(-c3c(-c4ccccc4)oc4c(C5CC5)cccc4c3=O)cc2)CCC1 [Example 54, 3-[4-(1-Amino-cyclobutyl)-phenyl]-8-cyclopropyl-2-phenyl-chromen-4-one hydrochloride]"
1000 to 10000,≤ 1000,≤ 1000,"Cn1cc(-c2cccc3c(=O)c(-c4ccc(C5(N)CCC5)cc4)c(-c4ccccc4)oc23)cn1 [Example 55, 3-[4-(1-Amino-cyclobutyl)-phenyl]-8-(1-methyl-1H-pyrazol-4-yl)-2-phenyl-chromen-4-one hydrochloride]"
1000 to 10000,≤ 1000,≤ 1000,"NC1(c2ccc(-c3c(-c4ccccc4)oc4c(-c5cccnc5)cccc4c3=O)cc2)CCC1 [Example 56, 3-[4-(1-Amino-cyclobutyl)-phenyl]-2-phenyl-8-pyridin-3-yl-chromen-4-one]"
1000 to 10000,≤ 1000,≤ 1000,"NC1(c2ccc(-c3c(-c4ccccc4)oc4c(ccc5cn[nH]c54)c3=O)cc2)CCC1 [Example 57, 7-[4-(1-Amino-cyclobutyl)-phenyl]-8-phenyl-1H-9-oxa-1,2-diaza-cyclopenta[a]naphthalen-6-one]"
1000 to 10000,≤ 1000,≤ 1000,"Cn1ncc2ccc3c(=O)c(-c4ccc(C5(N)CCC5)cc4)c(-c4ccccc4)oc3c21 [Example 58, 7-[4-(1-Amino-cyclobutyl)-phenyl]-1-methyl-8-phenyl-1H-9-oxa-1,2-diaza-cyclopenta[a]naphthalen-6-one]"
1000 to 10000,≤ 1000,≤ 1000,"Cn1cc2ccc3c(=O)c(-c4ccc(C5(N)CCC5)cc4)c(-c4ccccc4)oc3c2n1 [Example 59, 7-[4-(1-Amino-cyclobutyl)-phenyl]-2-methyl-8-phenyl-2H-9-oxa-1,2-diaza-cyclopenta[a]naphthalen-6-one]"
